In patent publication US5612337A, “Substituted morpholine derivatives and their use as therapeutic agents” (Merck Sharp & Dohme Limited, priority 1993, dated 1997):

Test: stability of crystals of the hydrochloride salt
Format: physicochemical
Description: Dimethylamine (approximately 10 ml) was condensed at -80° C. in a pressure tube and to this was added a solution of N-(4-azidobut-2-ynyl)-2-(R)-(1-(R)-(3,5-bis(trifluoromethyl) phenyl)ethoxy)-3-(S)-(4-fluorophenyl)morpholine (3.2 g) in dioxan (15 ml). The tube was sealed and the solution was heated at 90° C. for 16 h. The solution was evaporated to dryness and the residue chromatographed on silica gel (eluting with 5% methanol in dichloromethane containing 0.25% ammonia (SG. 0.88)) and the fractions containing the desired product were evaporated in vacuo to give the title compound. To a solution of this residue in diethyl ether was added 1M-HCl in methanol. The solution was evaporated to dryness and redissolved in diethyl ether to give crystals of the title compound hydrochloride salt m.p. 194°-198° C., [α]^22D +65.0° (C=0.5, H2 O).

Measured: stability of crystals

C[C@@H](O[C@H]1OCCN(Cc2nn[nH]c2CN(C)C)[C@H]1c1ccc(F)cc1)c1cc(C(F)(F)F)cc(C(F)(F)F)c1 [Example 12]
stable for at least five days: at 40° C. | at 40° C./75% relative humidity | at 80° C. | at 2000LUX
